Reference: PMC3465485 (Antiviral research, 2012)
“Also recorded” adds a separate entry of the source. Read-outs that look alike come from different tables or passages of the source.

Columns and labels:
[1] = tested on: Influenza A/Mississippi/03/2001 (H1N1) H275Y (A/MS-H275Y) virus
[2] = tested on: A/Hong Kong/2369/2009 (H1N1) H275Y (A/HK-H275Y) virus
[3] = tested on: influenza A/HK-H275Y virus neuraminidase; details: NA-Star assay, ref Nguyen et al., 2010a; cited from earlier work
[4] = target: A/HK-H275Y neuraminidase (Influenza A virus (A/Hong Kong/2369/2009(H1N1)), UniProt C6KQ69); test: biochemical
[5] = target: A/MS-H275Y neuraminidase (Influenza A virus (A/Mississippi/03/2001(H1N1)), UniProt C7FPR5, H275Y); type: biochemical
[6] = tested on: influenza A/MS-H275Y virus; parameters: species or system BALB/c mice; details: mouse, in vivo
[7] = tested on: influenza A/HK-H275Y virus; parameters: species or system BALB/c mice; details: mouse, in vivo
[8] = tested on: influenza A/WSN/33 (H1N1) H275Y virus; details: A/WSN/33 (H1N1) H275Y in mice, up to 10 mg/kg/day; ref Baz et al. (2009); cited from earlier work
[9] = read-out: EC50 (50% virus-inhibitory concentration)

Row | Molecule | antiviral activity in cell culture (in words) [1] | EC50 [1, 9] [µM] | EC50 [2] [µM] | antiviral activity in cell culture (in words) [2] | IC50 [3] [µM] | sensitivity of the viral neuraminidases (in words) [5] | survival effect (in words) [6] | also measured
1 | Peramivir | decreased sensitivity | 8.1 ± 5.2 | 7.9 ± 3 | decreased sensitivity | 9.2 | resistant |  | SI (CC50/EC50) [1]: >12; EC50 ([1]; read-out: inhibitory concentration against the H275Y viruses in cell culture): ~8 µM; SI (CC50/EC50) [2]: >12; IC50 [4]: 0.029 ± 0.0023 µM; IC50 [5]: 0.038 ± 0.001 µM
2 | NC12CC3CC(CC(C3)C1)C2 [Amantadine] |  | 0.3 ± 0.05 | > 100 | not active |  |  | No significant effect | survival effect (in words) ([6]; po, 3 mg/kg/day): no effect; protection from death ([6]; po, 30 mg/kg/day): 60%; protection from death ([6]; po, 100 mg/kg/day): 100%; protective activity ([6]; po, 100 mg/kg/day): 100%
3 | CCOC(=O)C1=C[C@@H](OC(CC)CC)[C@H](NC(C)=O)[C@@H](N)C1 [Oseltamivir, Oseltamivir phosphate] | resistant |  |  | resistant |  |  | not active | protection [6]: up to 60%; survival effect (in words) ([6]; po): ineffective; benefit (in words) ([6]; po, 25 mg/kg/day): no benefit; survival (protection from death) ([6]; po, 100 mg/kg/day): 30%; survival (protection from death) ([6]; po, 300 mg/kg/day): 60%; body weight change (in words) [7]: did not fall as rapidly as in the lower dosage and placebo groups; day of infection after which body weights began to increase [7]: > 10 days; survival effect (in words) [7]: not significantly effective; benefit (in words) ([7]; po, 25 mg/kg/day): no benefit; survival (protection from death) ([7]; po, 100 mg/kg/day): 50%; survival (protection from death) ([7]; po, 300 mg/kg/day): 70%; efficacy in treating the infection (in words) [8]: ineffective; mortality rate [8]: 75%
4 | NC(=O)c1ncn([C@@H]2O[C@H](CO)[C@@H](O)[C@H]2O)n1 [Ribavirin] |  | 25 ± 4.6 | 33 ± 13 |  |  |  | not effective | lung virus titer versus placebo (in words) ([7]; po): significantly reduced virus titers; also recorded: not significantly lower than placebo; body weight change (in words) ([7]; po, 75 mg/kg/day): Weight decline was least severe; day of infection after which weight gain started ([7]; po, 75 mg/kg/day): > 8 days; survival effect (in words) ([7]; po, 75 mg/kg/day): fully protective
5 | CC(N)C12CC3CC(CC(C3)C1)C2 (stereo not shown) [Rimantadine] |  | 0.01 ± 0.003 | > 22 | not active |  |  | no significant effect | SI (CC50/EC50) [1]: 2200; SI (CC50/EC50) [2]: 0
6 | CCC(CC)O[C@@H]1C=C(C(=O)O)C[C@H](N)[C@H]1NC(C)=O [Oseltamivir Carboxylate, Oseltamivir carboxylate] |  | > 100 | > 100 |  | 78 | resistant |  | IC50 ([4]; IC50): > 0.1 µM
7 | CC(=O)N[C@H]1[C@H]([C@H](O)[C@H](O)CO)OC(C(=O)O)=C[C@@H]1N=C(N)N [Zanamivir] | highly sensitive | 0.24 ± 0.08 | 0.36 ± 0.58 | highly sensitive | 0.43 | sensitive | ineffective; also recorded: delayed the time to death significantly but did little to prevent mortality | IC50 ([4]; IC50): 0.0009 ± 0.0002 µM
